Data on 12 compounds can be found in ChEMBL document CHEMBL4651402, “Screening of ~5500 FDA-approved drugs and clinical candidates for anti-SARS-CoV-2 activity” (2021).

Series [1] deals with SARS-CoV-2. Put plainly: microbe, parasite or virus in culture. It counts as functional, organism-based, Chlorocebus sabaeus, Vero C1008. The conditions noted are these: Severe acute respiratory syndrome coronavirus 2, Vero C1008, 48 h.
The nature of another series: in vitro. The conditions noted are these: chlorocebus sabaeus, Vero E6 (Vero C1008) cells.
The test system of series [2] is SARS-CoV-2. Put plainly: microbe, parasite or virus in culture. The conditions noted are these: Severe acute respiratory syndrome coronavirus 2, Vero C1008, 48 h.

Where only a bound is given, the exact number is not on record here.

Regarding `CC(=O)O[C@H]1CC[C@@]2(C)C(=CC[C@@H]3[C@@H]2CC[C@]2(C)C(c4cccnc4)=CC[C@@H]32)C1` [ABIRATERONE ACETATE], the IC50 with SARS-CoV-2 [1] (read-out: IC50) was over 25.1 µM; with SARS-CoV-2 [1] (read-out: pIC50 (converted)), over 25.1 µM; in the series on SARS-CoV-2 [2], over 100 µM; with SARS-CoV-2 [2] (read-out: pIC50 (converted)), over 100 µM. Also, the half-maximal cytotoxic concentration (CC50) at 48 h in “in vitro” (CC50) was 9.89 µM; in “in vitro” (pCC50), 9.77 µM.
For the compound `CN1CCC(=C2c3ccccc3Sc3ccccc32)CC1` [PIMETHIXENE], the IC50 in the series with SARS-CoV-2 [1] (read-out: IC50), with SARS-CoV-2 [1] (read-out: pIC50 (converted)), with SARS-CoV-2 [2] and with SARS-CoV-2 [2] (read-out: pIC50 (converted)) was over 100 µM each time. Further, the CC50 at 48 h in the series “in vitro” (CC50) and in the series “in vitro” (pCC50) was 25.7 µM in each case.
For the compound `Cc1c(-c2ccccc2)oc2c(C(=O)OC(C)(C)CN3CCCCC3)cccc2c1=O` [TERFLAVOXATE], the IC50 in the series with SARS-CoV-2 [1] (read-out: IC50), in the series on SARS-CoV-2 [1] (read-out: pIC50 (converted)), in the series on SARS-CoV-2 [2] and in the series on SARS-CoV-2 [2] (read-out: pIC50 (converted)) was over 100 µM in each case. Moreover, the CC50 at 48 h in the series “in vitro” (CC50) and in “in vitro” (pCC50) was about 63.1 µM throughout.
Turning to `CCOC(=O)[C@H]1O[C@@H]1C(=O)N[C@@H](CC(C)C)C(=O)NCCC(C)C` [ALOXISTATIN], the IC50 with SARS-CoV-2 [1] (read-out: IC50) is 85.1 µM; in the series with SARS-CoV-2 [1] (read-out: pIC50 (converted)), 85.1 µM; in the series with SARS-CoV-2 [2], 34.3 µM; with SARS-CoV-2 [2] (read-out: pIC50 (converted)), 33.9 µM. The CC50 at 48 h in “in vitro” (CC50) and in the series “in vitro” (pCC50) was over 100 µM each time.
In the case of `COc1ccc(C#Cc2ccccc2)c(CCC(C)N(C)CCc2ccc(OC)c(OC)c2)c1` (configuration not stated), the IC50 is over 100 µM with SARS-CoV-2 [1] (read-out: IC50), over 100 µM with SARS-CoV-2 [1] (read-out: pIC50 (converted)), 4.27 µM with SARS-CoV-2 [2] and 4.27 µM with SARS-CoV-2 [2] (read-out: pIC50 (converted)). Besides, the CC50 at 48 h is 4.84 µM in the series “in vitro” (CC50) and 4.79 µM in “in vitro” (pCC50).
As to `Cc1cc2nc3c(=O)[nH]c(=O)nc-3n(C[C@H](O)[C@H](O)[C@H](O)CO)c2cc1C` [RIBOFLAVIN], the IC50 in the series on SARS-CoV-2 [1] (read-out: IC50) is over 50.1 µM; with SARS-CoV-2 [1] (read-out: pIC50 (converted)), over 50.1 µM; with SARS-CoV-2 [2], about 11.2 µM; in the series with SARS-CoV-2 [2] (read-out: pIC50 (converted)), about 11.2 µM. The CC50 at 48 h in the series “in vitro” (CC50) and in “in vitro” (pCC50) was over 50.1 µM each time.
Turning to `CC(C)(Cc1c[nH]c2ccccc12)NCC(O)COc1ccccc1C#N` (configuration not stated) [BUCINDOLOL], the IC50 in the series on SARS-CoV-2 [1] (read-out: IC50) is over 100 µM; in the series on SARS-CoV-2 [1] (read-out: pIC50 (converted)) it was over 100 µM; with SARS-CoV-2 [2], 17 µM; in the series on SARS-CoV-2 [2] (read-out: pIC50 (converted)) it was 17 µM. Besides, the CC50 at 48 h in the series “in vitro” (CC50) and in the series “in vitro” (pCC50) was 30.9 µM throughout.
With `Cn1cncc1[C@@](N)(c1ccc(Cl)cc1)c1ccc2c(c1)c(-c1cccc(Cl)c1)cc(=O)n2C` [TIPIFARNIB], the IC50 in the series on SARS-CoV-2 [1] (read-out: IC50), with SARS-CoV-2 [1] (read-out: pIC50 (converted)), with SARS-CoV-2 [2] and with SARS-CoV-2 [2] (read-out: pIC50 (converted)) was over 100 µM in each case. Besides, the CC50 at 48 h in the series “in vitro” (CC50) was 13.3 µM; in the series “in vitro” (pCC50), 13.2 µM.
As to `Fc1ccc([C@@H]2CCNC[C@H]2COc2ccc3c(c2)OCO3)cc1` [PAROXETINE], the IC50 in the series with SARS-CoV-2 [1] (read-out: IC50) was over 100 µM; in the series on SARS-CoV-2 [1] (read-out: pIC50 (converted)), over 100 µM; with SARS-CoV-2 [2], 15.1 µM; in the series with SARS-CoV-2 [2] (read-out: pIC50 (converted)), 15.1 µM. Besides, the CC50 at 48 h in “in vitro” (CC50) and in “in vitro” (pCC50) was 16.6 µM in each case.
For the compound `CCOC(=O)Oc1c(OC)cc(C(=O)OC2CC3CN4CCc5c([nH]c6cc(OC)ccc56)C4CC3C(C(=O)OC)C2OC)cc1OC` (configuration not stated), the IC50 in the series with SARS-CoV-2 [1] (read-out: IC50), in the series on SARS-CoV-2 [1] (read-out: pIC50 (converted)), in the series on SARS-CoV-2 [2] and in the series with SARS-CoV-2 [2] (read-out: pIC50 (converted)) was over 100 µM throughout. For the same compound, the CC50 at 48 h in “in vitro” (CC50) and in the series “in vitro” (pCC50) was 8.91 µM in each case.
For the compound `CCN(CC)CCOC1(c2ccccc2)CCN(CCNc2ccccc2)CC1` [DIAMOCAINE], the IC50 in the series with SARS-CoV-2 [1] (read-out: IC50) was 22.4 µM; in the series with SARS-CoV-2 [1] (read-out: pIC50 (converted)), 22.4 µM; in the series with SARS-CoV-2 [2], about 9.55 µM; in the series with SARS-CoV-2 [2] (read-out: pIC50 (converted)), about 9.55 µM. The CC50 at 48 h in “in vitro” (CC50) and in the series “in vitro” (pCC50) was 46.8 µM in each case.
For `C=C1CC[C@@H]2[C@](C)(CO)[C@H](O)CC[C@@]2(C)[C@@H]1C/C=C1/C(=O)OC[C@H]1O` [ANDROGRAPHOLIDE], the IC50 in the series with SARS-CoV-2 [1] (read-out: IC50), with SARS-CoV-2 [1] (read-out: pIC50 (converted)), with SARS-CoV-2 [2] and in the series on SARS-CoV-2 [2] (read-out: pIC50 (converted)) was over 100 µM throughout. The CC50 at 48 h in “in vitro” (CC50) was about 21.6 µM; in “in vitro” (pCC50), about 21.4 µM.

In general, CC50 refers to the concentration at which the toxic effect on the cells reaches its halfway point.
